This is an account of results in US8008291B2 (Mimetica Pty Ltd, priority 2008, dated 2011).

T1 sequence (P33032 whole entry): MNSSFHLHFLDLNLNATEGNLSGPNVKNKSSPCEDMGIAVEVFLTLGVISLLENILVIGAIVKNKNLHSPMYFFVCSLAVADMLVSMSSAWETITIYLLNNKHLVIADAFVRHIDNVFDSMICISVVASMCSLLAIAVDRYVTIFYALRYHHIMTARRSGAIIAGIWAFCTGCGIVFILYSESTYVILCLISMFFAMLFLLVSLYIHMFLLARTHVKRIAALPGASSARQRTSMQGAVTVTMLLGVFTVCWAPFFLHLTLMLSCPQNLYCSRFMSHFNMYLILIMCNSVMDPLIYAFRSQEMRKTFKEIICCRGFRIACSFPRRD

The assay has as its target T1, human MC5R (hMC5R) (Homo sapiens, UniProt P33032).
T1 construct: purchased Perkin Elmer RBXMC5M400UA
Description: Human MC5R radioligand binding assay (membranes, [125I] NDP-MSH displacement). The settings on record: hMC5R binding; tested as trifluoroacetate or hydrochloride salts, or free bases; read-out: MC5R radioligand IC50. In outline: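 Displacement of [125I]NDP-MSH (radioiodinated in house, HPLC-purified) from hMC5R membranes by test compound measured after 1 hr incubation at 37° C.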
On to `O=C(NC[C@@H]1CCN(CC(c2ccccc2)c2ccccc2)C(=O)[C@H](CCN2CCCCC2)N1)c1ccc2ccccc2c1` [Compound 368, N-(((3S,5S)-1-(2,2-diphenylethyl)-2-oxo-3-(2-(piperidin-1-yl)ethyl)-1,4-diazepan-5-yl)methyl)-2-naphthamide], for which the IC50 was under 100 nM.
As for `CCCOC(=O)N[C@H](Cc1ccc2ccccc2c1)[C@@H]1CCN(CC(c2ccccc2)c2ccccc2)C(=O)[C@H](CCCNC(=N)N)N1` [Compound 87, propyl (R)-1-((3S,5S)-1-(2,2-diphenylethyl)-3-(3-guanidinopropyl)-2-oxo-1,4-diazepan-5-yl)-2-(naphthalen-2-yl)ethylcarbamate], the figure is under 10000 nM; as for `CC[C@H](CN1CC[C@@H](CNC(=O)c2ccc3cc(Cl)ccc3c2)N[C@@H](CN2CCCCC2)C1=O)c1ccccc1` [Compound 415, 6-chloro-N-(((3S,5S)-2-oxo-1-((S)-2-phenylbutyl)-3-(piperidin-1-ylmethyl)-1,4-diazepan-5-yl)methyl)-2-naphthamide], under 100 nM.
As for `N=C(N)NCCC[C@@H]1N[C@H](CNC(=O)c2ccc3ccccc3c2)CCN(Cc2ccccc2)C1=O` [Compound 249, N-(((3S,5S)-1-benzyl-3-(3-guanidinopropyl)-2-oxo-1,4-diazepan-5-yl)methyl)-2-naphthamide], the figure is under 10000 nM; as for `NCCC[C@@H]1N[C@H](CNC(=O)c2ccc3cc(Br)ccc3c2)CCN(CC(c2ccccc2)c2ccccc2)C1=O` [Compound 211, N-(((3S,5S)-3-(3-aminopropyl)-1-(2,2-diphenylethyl)-2-oxo-1,4-diazepan-5-yl)methyl)-6-bromo-2-naphthamide], under 100 nM; as for `CC[C@H](CN1CC[C@@H](CNC(=O)c2ccc(Cl)c(Cl)c2)N[C@@H](CCN2CCCCC2)C1=O)C(C)C` [Compound 462, 3,4-dichloro-N-(((3S,5S)-1-((S)-2-ethyl-3-methylbutyl)-2-oxo-3-(2-(piperidin-1-yl)ethyl)-1,4-diazepan-5-yl)methyl)benzamide], under 100 nM.
`NCCCC[C@@H]1N[C@H](CNC(=O)c2cc3ccccc3o2)CCN(CC(c2ccccc2)c2ccccc2)C1=O` [Compound 129, N-(((3S,5S)-3-(4-aminobutyl)-1-(2,2-diphenylethyl)-2-oxo-1,4-diazepan-5-yl)methyl)benzofuran-2-carboxamide]: the IC50 was under 10000 nM.
For the compound `CC[C@@H](CN1CC[C@@H](CNC(=O)c2ccc3cc(Cl)ccc3c2)N[C@@H](CCN)C1=O)C(C)C` [Compound 469, N-(((3S,5S)-3-(2-aminoethyl)-1-((R)-2-ethyl-3-methylbutyl)-2-oxo-1,4-diazepan-5-yl)methyl)-6-chloro-2-naphthamide], the IC50 is under 1000 nM.
In the case of `CCOc1ccc(/C=C/C(=O)NC[C@@H]2CCN(CC(c3ccccc3)c3ccccc3)C(=O)[C@H](CCCNC(=N)N)N2)cc1` [Compound 210, (E)-N-(((3S,5S)-1-(2,2-diphenylethyl)-3-(3-guanidinopropyl)-2-oxo-1,4-diazepan-5-yl)methyl)-3-(4-ethoxyphenyl)acrylamide], the IC50 is under 100 nM.
Consider `CC[C@H](CN1CC[C@@H](CNC(=O)c2ccc3cc(Cl)ccc3c2)N[C@@H](CCN2CCCCC2)C1=O)C(C)C` [Compound 472, 6-chloro-N-(((3S,5S)-1-((S)-2-ethyl-3-methylbutyl)-2-oxo-3-(2-(piperidin-1-yl)ethyl)-1,4-diazepan-5-yl)methyl)-2-naphthamide], for which the IC50 was under 100 nM.
Regarding `CCC(C)(CC)CN1CC[C@@H](CNC(=O)c2ccc3cc(Cl)ccc3c2)N[C@@H](CCN2CCCCC2)C1=O` [Compound 513, 6-chloro-N-(((3S,5S)-1-(2-ethyl-2-methylbutyl)-2-oxo-3-(2-(piperidin-1-yl)-ethyl)-1,4-diazepan-5-yl)methyl)-2-naphthamide], the IC50 was under 100 nM.
On to `CCC(CC)CN1CC[C@@H](CNC(=O)c2ccc3cc(F)ccc3c2)N[C@@H](CCN2CCCCC2)C1=O` [Compound 372, N-(((3S,5S)-1-(2-ethylbutyl)-2-oxo-3-(2-(piperidin-1-yl)ethyl)-1,4-diazepan-5-yl)methyl)-6-fluoro-2-naphthamide], for which the IC50 is under 100 nM.
For `CCC(CN1CC[C@@H](CNC(=O)c2ccc3cc(Cl)ccc3c2)N[C@@H](CCN2CCCCC2)C1=O)C1CC1` (stereo partly drawn) [Compound 488, 6-chloro-N-(((3S,5S)-1-(2-cyclopropylbutyl)-2-oxo-3-(2-(piperidin-1-yl)ethyl)-1,4-diazepan-5-yl)methyl)-2-naphthamide], the IC50 was under 100 nM.
As for `Cc1cc(C)cc(CN2CC[C@@H](CNC(=O)c3ccc4ccccc4c3)N[C@@H](CCCNC(=N)N)C2=O)c1` [Compound 286, N-(((3S,5S)-1-(3,5-dimethylbenzyl)-3-(3-guanidinopropyl)-2-oxo-1,4-diazepan-5-yl)methyl)-2-naphthamide], the IC50 was under 1000 nM.
In the case of `O=C(NC[C@@H]1CCN(CC(c2ccccc2)c2ccccc2)C(=O)[C@H](CCCNCc2ccccc2)N1)c1ccc2ccccc2c1` [Compound 245, N-(((3S,5S)-3-(3-(benzylamino)propyl)-1-(2,2-diphenylethyl)-2-oxo-1,4-diazepan-5-yl)methyl)-2-naphthamide], the IC50 is under 100 nM.
As for `NCCCC[C@@H]1N[C@H](CNC(=O)[C@H]2Cc3ccccc3CN2)CCN(CC(c2ccccc2)c2ccccc2)C1=O` [Compound 128, (R)—N-(((3S,5S)-3-(4-aminobutyl)-1-(2,2-diphenylethyl)-2-oxo-1,4-diazepan-5-yl)methyl)-1,2,3,4-tetrahydroisoquinoline-3-carboxamide], the IC50 was under 1000 nM.
Turning to `CCC(CN1CC[C@@H](CNC(=O)/C=C/c2ccc(Cl)cc2)N[C@@H](CCN)C1=O)c1ccccc1` (stereo partly drawn) [Compound 353, (E)-N-(((3S,5S)-3-(2-aminoethyl)-2-oxo-1-(2-phenylbutyl)-1,4-diazepan-5-yl)methyl)-3-(4-chlorophenyl)acrylamide], the IC50 was under 100 nM.
In the case of `CC1CC(C)CC(CN2CC[C@@H](CNC(=O)c3ccc(Cl)c(Cl)c3)N[C@@H](CCN3CCCCC3)C2=O)C1` (stereo partly drawn) [Compound 386, 3,4-dichloro-N-(((3S,5S)-1-((3,5-dimethylcyclohexyl)methyl)-2-oxo-3-(2-(piperidin-1-yl)ethyl)-1,4-diazepan-5-yl)methyl)benzamide], the IC50 is under 100 nM.
As for `NCCC[C@@H]1N[C@H](CNC(=O)c2ccc3ccccc3c2)CCN(Cc2cc(C(F)(F)F)cc(C(F)(F)F)c2)C1=O` [Compound 340, N-(((3S,5S)-3-(3-aminopropyl)-1-(3,5-bis(trifluoromethyl)benzyl)-2-oxo-1,4-diazepan-5-yl)methyl)-2-naphthamide], the figure is under 10000 nM; as for `Cc1ccc(/C=C/C(=O)NC[C@@H]2CCN(CC(c3ccccc3)c3ccccc3)C(=O)[C@H](CCN3CCCCC3)N2)c(C)c1` [Compound 398, (E)-3-(2,4-dimethylphenyl)-N-(((3S,5S)-1-(2,2-diphenylethyl)-2-oxo-3-(2-(piperidin-1-yl)ethyl)-1,4-diazepan-5-yl)methyl)acrylamide], under 100 nM; as for `CC[C@H](CN1CC[C@@H](CNC(=O)c2ccc(Cl)c(Cl)c2)N[C@@H](CCNc2ccccc2)C1=O)c1ccccc1` [Compound 428, 3,4-dichloro-N-(((3S,5S)-2-oxo-3-(2-(phenylamino)ethyl)-1-((S)-2-phenylbutyl)-1,4-diazepan-5-yl)methyl)benzamide], under 1000 nM.
Take `C[C@@H](C(c1ccccc1)c1ccccc1)N1CC[C@@H](CNC(=O)c2ccc3ccccc3c2)N[C@@H](CCCNC(=N)N)C1=O` [Compound 203, N-(((3S,5S)-1-((S)-1,1-diphenylpropan-2-yl)-3-(3-guanidinopropyl)-2-oxo-1,4-diazepan-5-yl)methyl)-2-naphthamide]: the IC50 was under 100 nM.
Regarding `CC1CC(C)CC(CN2CC[C@@H](CNC(=O)c3ccc(Cl)c(Cl)c3)N[C@@H](CCNC(C)C)C2=O)C1` (stereo partly drawn) [Compound 387, 3,4-dichloro-N-(((3S,5S)-1-((3,5-dimethylcyclohexyl)methyl)-3-(2-(isopropylamino)ethyl)-2-oxo-1,4-diazepan-5-yl)methyl)benzamide], the IC50 was under 1000 nM.
On to `CCN(CC)CC[C@@H]1N[C@H](CNC(=O)c2ccc3ccccc3c2)CCN(CC(c2ccccc2)c2ccccc2)C1=O` [Compound 362, N-(((3S,5S)-3-(2-(diethylamino)ethyl)-1-(2,2-diphenylethyl)-2-oxo-1,4-diazepan-5-yl)methyl)-2-naphthamide], for which the IC50 was under 100 nM.
In the case of `CC[C@@H](CN1CC[C@@H](CNC(=O)/C=C/c2ccc(Cl)cc2)N[C@@H](CCN2CCCCC2)C1=O)c1ccccc1` [Compound 364, (E)-3-(4-chlorophenyl)-N-(((3S,5S)-2-oxo-1-((R)-2-phenylbutyl)-3-(2-(piperidin-1-yl)ethyl)-1,4-diazepan-5-yl)methyl)acrylamide], the IC50 is under 100 nM.
With `CC[C@H](CN1CC[C@@H](CNC(=O)c2ccc(Cl)c(Cl)c2)N[C@@H](CCN2CCOCC2)C1=O)c1ccccc1` [Compound 427, 3,4-dichloro-N-(((3S,5S)-3-(2-morpholinoethyl)-2-oxo-1-((S)-2-phenylbutyl)-1,4-diazepan-5-yl)methyl)benzamide], the IC50 was under 100 nM.
In the case of `CC[C@H](CN1CC[C@@H](CNC(=O)c2ccc(Cl)cc2Cl)N[C@@H](CCN2CCCCC2)C1=O)c1ccccc1` [Compound 534, 2,4-dichloro-N-(((3S,5S)-2-oxo-1-((S)-2-phenylbutyl)-3-(2-(piperidin-1-yl)ethyl)-1,4-diazepan-5-yl)methyl)benzamide] it was under 10 nM.
`Cc1ccc(S(=O)(=O)NCC[C@@H]2N[C@H](CNC(=O)c3ccc(Cl)c(Cl)c3)CCN(Cc3ccc(Cl)cc3Cl)C2=O)cc1` [Compound 505, 3,4-dichloro-N-(((3S,5S)-1-(2,4-dichlorobenzyl)-3-(2-(4-methylphenylsulfonamido)ethyl)-2-oxo-1,4-diazepan-5-yl)methyl)benzamide]: the IC50 is under 10000 nM.
